Counter-ions that a name gives are not always drawn. Like-named read-outs stand apart in the source and are kept apart here.
Legend:
h5-HT4b = target: T1, h5-HT4b (Homo sapiens, UniProt Q13639); assay: 5HT4 antagonism: [3H]GR113808 binding to membranes of h5-HT4b-HEK 293 clone 9 cells; conditions: 30 min at 25° C.
T1 construct: expressed in transfected cells; host or cells: HEK 293 (clone 9), membrane preparation
Experimental: The cells were then scraped from the plates and suspended in 50 mM Tris-HCl buffer, pH 7.4 and harvested by centrifugation at 23,500 rpm for 10 minutes. The pellet was resuspended in 5 mM Tris-HCl, pH 7.4 and homogenized with an Ultra Turrax homogenizer. The membranes were collected by centrifugation at 30,000 rpm for 20 min, resuspended in 50 mM Tris-HCl pH 7.4 and stored at −80° C. […] 50 μl of 10% DMSO was added for total binding. 50 μl of 1 μM of (+)-trans-(1-butyl-3-hydroxy-4-piperidinyl)methyl 8-amino-7-chloro-2,3-dihydro-1,4-benzodioxin-5-carboxylate (a proprietary 5HT4 agonist of Janssen Pharmaceutica) was added for determination of non-specific binding. The [^3H]GR113808 assay buffer was 50 mM HEPES-NaOH, pH 7.4. The mixtures were incubated for 30 min at 25° C. The incubation was terminated by filtration over a Unifilter 96 GF/B presoaked in 0.1% polyethylenimine, followed by six washing steps with 50 mM HEPES-NaOH, pH 7.4.

[1] = Metabolic stability: incubation with liver microsomes and NADPH-generating system, LC-MS; format: in vitro ADME; conditions: compound 5 μM, microsomes 1 mg/ml, 37 degrees Celsius
Experimental: Sub-cellular tissue preparations were made according to Gorrod et al. (Xenobiotica 5: 453-462, 1975) by centrifugal separation after mechanical homogenization of tissue. Liver tissue was rinsed in ice-cold 0.1 M Tris-HCl (pH 7.4) buffer to wash excess blood. Tissue was then blotted dry, weighed and chopped coarsely using surgical scissors. The tissue pieces were homogenized in 3 volumes of ice-cold 0.1 M phosphate buffer (pH 7.4).
Tissue homogenates were centrifuged at 9000×g for 20 minutes at 4° C. The resulting supernatant was stored at −80° C. and is designated ‘S9’.
The S9 fraction can be further centrifuged at 100.000×g for 60 minutes (4° C.). The resulting supernatant was carefully aspirated, aliquoted and designated ‘cytosol’. The pellet was re-suspended in 0.1 M phosphate buffer (pH 7.4) in a final volume of 1 ml per 0.5 g original tissue weight and designated ‘microsomes’.
All sub-cellular fractions were aliquoted, immediately frozen in liquid nitrogen and stored at −80° C. until use.
Control samples contained the same material but the microsomes were replaced by heat inactivated (10 minutes at 95 degrees Celsius) microsomes. Recovery of the compounds in the control samples was always 100%.
The mixtures were preincubated for 5 minutes at 37 degrees Celsius. The reaction was started at time point zero (t=0) by addition of 0.8 mM NADP and the samples were incubated for 60 minutes (t=60). The reaction was terminated by the addition of 2 volumes of DMSO. Then the samples were centrifuged for 10 minutes at 900×g and the supernatants were stored at room temperature for no longer as 24 hours before analysis. All incubations were performed in duplo. Analysis of the supernatants was performed with LC-MS analysis. Elution of the samples was performed on a Xterra MS C18 (50×4.6 mm, 5 μm, Waters, US). An Alliance 2790 (Supplier: Waters, US) HPLC system was used. Elution was with buffer A (25 mM ammoniumacetate (pH 5.2) in H2O/acetonitrile (95/5)), solvent B being acetonitrile and solvent C methanol at a flow rate of 2.4 ml/min. The gradient employed was increasing the organic phase concentration from 0% over 50% B and 50% C in 5 min up to 100% B in 1 minute in a linear fashion and organic phase concentration was kept stationary for an additional 1.5 minutes. Total injection volume of the samples was 25 μl.
A Quatro triple quadrupole mass spectrometer fitted with and ESP source was used as detector. The source and the desolvation temperature were set at 120 and 350° C. respectively and nitrogen was used as nebuliser and drying gas. Data were acquired in positive scan mode (single ion reaction). Cone voltage was set at 10 V and the dwell time was 1 second.
Metabolic stability was expressed as % metabolism of the compound after 60 minutes (equation given as example) of incubation in the presence of active microsomes (E(act))

[2] = displacement of 0.1 nM [3H]GR113808, membranes of h5-HT4b-HEK 293 cells, read-out: pIC50 (converted)

T1 sequence (Q13639 whole entry): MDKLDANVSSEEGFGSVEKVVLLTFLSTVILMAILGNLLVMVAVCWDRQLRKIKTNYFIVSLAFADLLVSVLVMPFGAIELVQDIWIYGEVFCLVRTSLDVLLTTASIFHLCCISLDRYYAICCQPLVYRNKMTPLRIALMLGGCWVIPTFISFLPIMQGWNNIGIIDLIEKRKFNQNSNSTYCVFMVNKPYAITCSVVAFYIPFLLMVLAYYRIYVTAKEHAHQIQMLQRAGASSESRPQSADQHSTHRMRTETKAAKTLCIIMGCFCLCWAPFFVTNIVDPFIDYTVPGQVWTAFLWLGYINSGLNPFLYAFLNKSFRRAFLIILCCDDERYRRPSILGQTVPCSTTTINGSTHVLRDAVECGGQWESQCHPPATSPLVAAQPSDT

Structure (SMILES) | melting point [°C] | IC50 (h5-HT4b; [2]) [nM] | % metabolised compound after 60 minutes [1] [%] | IC50 (h5-HT4b; pIC50, displacement of 0.1 nM [3H]GR113808, membranes of h5-HT4b-HEK 293 cells) [nM]
Cc1ccc(C(=O)NC[C@@H]2CCN(CCCC(=O)NS(C)(=O)=O)C[C@H]2O)c2c1OCCCO2 (as salt: hydrochloride) [Compound 27] | 142 | – | – | –
NS(=O)(=O)CCCCN1CC[C@@H](CNC(=O)c2cc(Cl)c(Cl)c3c2OCCCO3)[C@H](O)C1 (relative stereo) [Compound 30] | – | 1.7 | 12 | –
CO[C@@H]1CN(CCCCS(N)(=O)=O)CC[C@H]1CNC(=O)c1cc(F)cc2c1OCCCO2 (relative stereo) [Compound 44] | – | 3.72 | 27 | –
COc1ccc(C(=O)NCC2CCN(CCCCS(N)(=O)=O)CC2OC)c2c1OCCO2 (stereo not shown) [Compound 6] | – | 28.8 | 9 | –
NS(=O)(=O)CCCCN1CC[C@@H](CNC(=O)c2cc(F)cc3c2OCCO3)[C@H](O)C1 [Compound 7] | – | 1.86 | 3 | –
Cc1ccc(C(=O)NCC2CCN(CCCS(=O)(=O)Nc3ccccc3)CC2O)c2c1OCCCO2 (stereo not shown) [Compound 10] | – | 1.29 | – | –
Cc1ccc(C(=O)NCC2CCN(CCCS(N)(=O)=O)CC2O)c2c1OCCCO2 (stereo not shown) [Compound 18] | – | 5.25 | 7 | –
Cc1ccc(C(=O)NC[C@@H]2CCN(CCS(N)(=O)=O)C[C@H]2O)c2c1OCCCO2 [Compound 23] | – | 5.75 | 8 | –
Cc1ccc(C(=O)NC[C@@H]2CCN(CCCC(=O)NS(C)(=O)=O)C[C@H]2O)c2c1OCCCO2 [Compound 27] | – | 12 | 5 | –
NS(=O)(=O)CCCCN1CCC(CNC(=O)c2cc(Cl)c(Br)c3c2OCCCO3)C(O)C1 (stereo not shown) [Compound 31] | – | 0.891 | 18 | –
COc1ccc(C(=O)NC[C@@H]2CCN(CCCCS(N)(=O)=O)C[C@H]2O)c2c1OCCCO2 [Compound 32] | – | 3.63 | 0 | –
COc1ccc(C(=O)NCC2CCN(CCCCS(N)(=O)=O)CC2O)c2c1OCCCO2 (stereo not shown) [Compound 40] | – | 158 | 0 | –
COC1CN(CCCS(N)(=O)=O)CCC1CNC(=O)c1cc(C#N)cc2c1OCCCO2 (stereo not shown) [Compound 41] | – | 56.2 | – | –
COC1CN(CCCCS(N)(=O)=O)CCC1CNC(=O)c1cc(Cl)c(Cl)c2c1OCCCO2 (stereo not shown) [Compound 42] | – | 1.51 | – | –
COC1CN(CCCCS(N)(=O)=O)CCC1CNC(=O)c1cc(Cl)c(Br)c2c1OCCCO2 (stereo not shown) [Compound 43] | – | 1.7 | – | –
COC1CN(CCCCS(N)(=O)=O)CCC1CNC(=O)c1cc(Cl)cc2c1OCCCO2 (stereo not shown) [Compound 45] | – | 1.38 | – | –
COc1ccc(C(=O)NCC2(O)CCN(CCCCS(N)(=O)=O)CC2)c2c1OCCCO2 [Compound 47] | – | 100 | 0 | –
Cc1cc2c(c(C(=O)NCC3(O)CCN(CCCCS(N)(=O)=O)CC3)c1)OCCCO2 [Compound 48] | – | 20.9 | 6 | –

Second part, the molecule after the results:

melting point [°C] | IC50 (h5-HT4b; [2]) [nM] | % metabolised compound after 60 minutes [1] [%] | IC50 (h5-HT4b; pIC50, displacement of 0.1 nM [3H]GR113808, membranes of h5-HT4b-HEK 293 cells) [nM] | Structure (SMILES)
186 | 50.1 | – | – | Nc1cc2c(c(C(=O)NC[C@@H]3CCN(CCCS(N)(=O)=O)C[C@H]3O)c1)OCCCO2 (relative stereo) [Compound 8]
– | 3.98 | – | – | Cc1cc2c(c(C(=O)NC[C@@H]3CCN(CCCS(=O)(=O)NC(C)C)C[C@H]3O)c1)OCCCO2 (relative stereo) [Compound 11]
– | 1.62 | – | – | Cc1cc2c(c(C(=O)NC[C@@H]3CCN(CCCS(=O)(=O)Nc4ccccc4)C[C@H]3O)c1)OCCCO2 (relative stereo) [Compound 12]
– | 2.19 | – | – | CNS(=O)(=O)CCCN1CC[C@@H](CNC(=O)c2cc(Cl)cc3c2OCCCO3)[C@H](O)C1 (relative stereo) [Compound 33]
– | 3.39 | – | – | Cc1ccc(C(=O)NCC2CCN(CCCS(=O)(=O)NC(C)C)CC2O)c2c1OCCCO2 (stereo not shown) [Compound 13]
– | 1.95 | – | – | CC(C)NS(=O)(=O)CCCN1CCC(CNC(=O)c2cc(Cl)cc3c2OCCCO3)C(O)C1 (stereo not shown) [Compound 14]
110 | 35.5 | 36 | – | CS(=O)(=O)NC(=O)CCCN1CC[C@@H](CNC(=O)c2cc(Cl)cc3c2OCCCO3)[C@H](O)C1 [Compound 15]
– | 1.78 | – | – | O=C(NCC1CCN(CCCS(=O)(=O)Nc2ccccc2)CC1O)c1cc(Cl)cc2c1OCCCO2 (stereo not shown) [Compound 17]
– | 3.39 | 14 | – | Cc1cc2c(c(C(=O)NCC3CCN(CCCS(N)(=O)=O)CC3O)c1)OCCCO2 (stereo not shown) [Compound 19]
– | 4.68 | 2 | – | Cc1cc2c(c(C(=O)NCC3CCN(CCCCS(N)(=O)=O)CC3O)c1)OCCCO2 (stereo not shown) [Compound 20]
– | 3.02 | 21 | – | NS(=O)(=O)CCCN1CCC(CNC(=O)c2cc(Cl)cc3c2OCCCO3)C(O)C1 (stereo not shown) [Compound 21]
162 | – | 28.5 | 5.37 | NS(=O)(=O)CCN1CC[C@@H](CNC(=O)c2cc(Cl)cc3c2OCCCO3)[C@H](O)C1 [Compound 22]
– | 2.88 | 53 | – | CNS(=O)(=O)CCCN1CCC(CNC(=O)c2cc(C)cc3c2OCCCO3)C(O)C1 (stereo not shown) [Compound 24]
– | 8.51 | 8.5 | – | Cc1cc2c(c(C(=O)NC[C@@H]3CCN(CCS(N)(=O)=O)C[C@H]3O)c1)OCCCO2 [Compound 25]
– | 0.676 | 13 | – | NS(=O)(=O)CCCCN1CC[C@@H](CNC(=O)c2cc(Cl)cc3c2OCCCO3)[C@H](O)C1 [Compound 26]
– | 1.15 | – | – | CNS(=O)(=O)CCCN1CC[C@@H](CNC(=O)c2ccc(C)c3c2OCCCO3)[C@H](O)C1 [Compound 34]
– | 0.407 | 15 | – | NS(=O)(=O)CCCCN1CC[C@@H](CNC(=O)c2cc(F)cc3c2OCCCO3)[C@H](O)C1 [Compound 35]
– | 11.2 | 3 | – | Cc1cc2c(c(C(=O)NCC3CCN(CCCCS(N)(=O)=O)CC3O)c1)OCCCO2 (stereo not shown) [Compound 38]
– | 12.6 | 2 | – | NS(=O)(=O)CCCCN1CCC(CNC(=O)c2cc(F)cc3c2OCCCO3)C(O)C1 (stereo not shown) [Compound 39]
– | 4.17 | – | – | COC1CN(CCCS(N)(=O)=O)CCC1CNC(=O)c1cc(F)cc2c1OCCCO2 (stereo not shown) [Compound 46]

Source: patent US8334304B2, “Aminosulfonyl substituted 4-(aminomethyl)-piperidine benzamides as 5HT4-antagonists” (Janssen Pharmaceutica N.V., priority 2003, dated 2012)
